Experimental data from US20240294499A1, “TARGETED PROTEIN DEGRADATION USING BIFUNCTIONAL COMPOUNDS THAT BIND UBIQUITIN LIGASE AND TARGET MCL-1 PROTEIN” (Captor Therapeutics S.A., priority 2021, published 2024).

Experiments:
DMS 114 cells = experiment: Cell viability assay (CellTiter-Glo), DMS 114; format: cell-based; details: 72 hours incubation, 10% FBS; for IC50: Homo sapiens, DMS-114, 72 h, read-out: Average pIC50 by molecule DMS 114 (converted)
From the text: The effect of various compounds of the invention on the viability of DMS 114 cell line was investigated, using the CTG protocol described below.
DMS 114 cell line is derived from small-cell lung cancer, which is described in the literature as MCL-1 dependent lines [Yasuda Y et al. Cell Death & Disease 2020; 11: 177].
DMS 114 cells were detached with trypsin and then resuspended in growth medium containing 10% FBS and counted. Cell suspension was then adjusted to 5×10^4 cells/ml using growth medium containing 10% FBS. Afterwards, […] were seeded on 384-well plates (50 μl). Plates were then placed in the incubator overnight until treated. Next day, compounds were added using ECHO 555 liquid handler. Compound concentrations used in this assay: 1/3 dilutions starting at 30 uM (9 to 12 points).
After 72 hours of incubation, cell viability was evaluated using CellTiter-Glo Luminescent Cell Viability Assay (Promega, cat #G7572). Luminescence signal was measured using a CLARIOstar Plus Multi-Mode Microplate Reader (574-590 nm).

[1] = target: [MCL-1]-[compound of formula (I)]-[CRBN/DDB1] complex (Homo sapiens, UniProt Q07820+Q96SW2); experiment: AlphaLISA dose response ternary complex formation assay; format: binding; details: for EC50: read-out: AlphaLISA dose response Average pEC50 by molecule (converted)
Chain of [MCL-1]-[compound of formula (I)]-[CRBN/DDB1] complex (Q07820 whole entry): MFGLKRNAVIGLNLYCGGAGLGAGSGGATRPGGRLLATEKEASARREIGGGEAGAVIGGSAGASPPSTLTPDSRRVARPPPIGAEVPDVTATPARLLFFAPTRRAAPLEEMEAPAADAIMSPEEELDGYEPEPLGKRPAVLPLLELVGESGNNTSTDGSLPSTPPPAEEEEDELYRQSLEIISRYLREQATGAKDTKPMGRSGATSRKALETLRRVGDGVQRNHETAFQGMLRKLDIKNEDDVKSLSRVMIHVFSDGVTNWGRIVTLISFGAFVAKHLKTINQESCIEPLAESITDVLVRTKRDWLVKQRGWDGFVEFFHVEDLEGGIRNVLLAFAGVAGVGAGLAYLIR
Chain of [MCL-1]-[compound of formula (I)]-[CRBN/DDB1] complex (Q96SW2 whole entry): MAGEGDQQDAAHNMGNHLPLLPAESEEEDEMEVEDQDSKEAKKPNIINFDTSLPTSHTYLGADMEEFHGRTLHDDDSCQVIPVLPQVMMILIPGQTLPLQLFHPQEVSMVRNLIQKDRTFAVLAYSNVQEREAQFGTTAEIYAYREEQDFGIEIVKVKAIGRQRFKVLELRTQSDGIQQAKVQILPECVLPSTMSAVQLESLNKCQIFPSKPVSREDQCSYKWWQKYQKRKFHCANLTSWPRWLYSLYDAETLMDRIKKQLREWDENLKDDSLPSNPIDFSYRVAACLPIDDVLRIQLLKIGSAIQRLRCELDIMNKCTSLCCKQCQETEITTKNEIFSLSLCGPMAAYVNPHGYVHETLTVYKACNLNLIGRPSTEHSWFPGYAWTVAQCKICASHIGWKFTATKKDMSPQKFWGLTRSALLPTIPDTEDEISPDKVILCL
Chain of [MCL-1]-[compound of formula (I)]-[CRBN/DDB1] complex (Q16531 whole entry partner): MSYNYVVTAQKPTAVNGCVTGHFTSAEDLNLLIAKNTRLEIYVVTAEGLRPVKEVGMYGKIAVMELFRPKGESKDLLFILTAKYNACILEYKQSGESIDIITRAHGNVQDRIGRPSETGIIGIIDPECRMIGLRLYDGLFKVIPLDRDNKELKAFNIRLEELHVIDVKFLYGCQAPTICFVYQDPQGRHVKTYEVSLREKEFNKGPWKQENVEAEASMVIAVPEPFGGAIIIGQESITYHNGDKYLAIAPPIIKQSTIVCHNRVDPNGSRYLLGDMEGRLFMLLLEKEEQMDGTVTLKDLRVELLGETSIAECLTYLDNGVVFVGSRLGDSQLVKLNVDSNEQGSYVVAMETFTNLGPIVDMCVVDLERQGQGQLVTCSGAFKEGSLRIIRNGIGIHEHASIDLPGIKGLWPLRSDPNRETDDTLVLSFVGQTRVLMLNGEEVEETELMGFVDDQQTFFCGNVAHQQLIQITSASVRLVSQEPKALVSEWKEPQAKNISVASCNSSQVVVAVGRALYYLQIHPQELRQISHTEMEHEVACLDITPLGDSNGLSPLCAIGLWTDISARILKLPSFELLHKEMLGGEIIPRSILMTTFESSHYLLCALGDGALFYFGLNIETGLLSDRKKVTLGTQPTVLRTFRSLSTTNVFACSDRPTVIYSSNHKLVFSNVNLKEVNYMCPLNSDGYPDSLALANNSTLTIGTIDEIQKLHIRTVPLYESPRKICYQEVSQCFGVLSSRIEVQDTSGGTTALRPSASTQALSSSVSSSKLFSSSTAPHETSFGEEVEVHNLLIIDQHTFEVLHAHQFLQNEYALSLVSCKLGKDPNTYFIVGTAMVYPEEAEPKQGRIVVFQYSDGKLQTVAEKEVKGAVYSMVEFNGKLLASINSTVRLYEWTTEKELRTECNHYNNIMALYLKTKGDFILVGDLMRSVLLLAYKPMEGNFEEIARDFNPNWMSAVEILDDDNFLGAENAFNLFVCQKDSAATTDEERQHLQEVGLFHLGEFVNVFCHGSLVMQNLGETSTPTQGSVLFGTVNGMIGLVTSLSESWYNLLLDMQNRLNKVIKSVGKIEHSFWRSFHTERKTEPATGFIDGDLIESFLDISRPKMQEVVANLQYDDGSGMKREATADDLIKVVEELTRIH
Outline: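 EC50 comes from dose–response of AlphaLISA luminescence (excitation 680, emission 615 nm), normalised between DMSO background and an internal positive control, with concentrations past the hook point dropped. Ternary complex formed by mixing bead-bound biotin-hMCL-1 and His-CRBN/DDB1 (protein solutions 40 and 200 nM) with compound in 2% DMSO, 30 min, 25 °C.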

MV-4-11 cells = experiment: Cell viability assay (CellTiter-Glo), MV-4-11; format: cell-based; details: 1% FBS; for IC50: Homo sapiens, MV4-11, 24 hours incubation, read-out: Average pIC50 by molecule MV-4-11 (converted)
Outline: (§1)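 Luminescent ATP readout (CellTiter-Glo) at 24 hours measured viability, expressed relative to DMSO-treated wells. Compound was added directly to the medium as a 9–12-point threefold series starting at 30 uM, at 0.5% final DMSO. The medium contained FBS reduced to 1%.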

ARH-77 cells = experiment: Cell viability assay (CellTiter-Glo), ARH-77; format: cell-based; details: 1% FBS; for IC50: Homo sapiens, ARH-77, 24 hours incubation, read-out: Average pIC50 by molecule ARH-77 (converted)
Outline: as §1

MCL-1 protein = MCL-1 protein (Homo sapiens, UniProt Q07820); experiment: OPM-2 cells: MCL-1 protein degradation, Simple Western; format: cell-based; design: endogenous in cells; host or cells: OPM-2; details: OPM-2 cell line, 6 h treatment, 100 nM compound, vs DMSO
Chain of MCL-1 protein (Q07820 whole entry): as the sequence (Q07820 whole entry) above
From the text: The effect of various compounds of the invention and the reference compounds on MCL-1protein degradation in the OPM-2 cell line was investigated, using the degradation assay protocol below.
OPM-2 cells were maintained in RPMI-1640 medium, supplemented with penicillin/streptomycin and 10% Fetal Bovine Serum (FBS). During the treatment, FBS concentration was reduced to 1%.
Compound stocks were pre-diluted in DMSO and added directly to the cells growth medium (final DMSO concentration: 0.5%).
OPM-2 cells were collected, centrifuged (250 rcf, 5 min), resuspended in a growth medium containing 1% FBS and counted. The cell suspension was then adjusted to 1×10^6 cell/ml using a growth medium containing 1% FBS. Afterwards, 0.5×10^6 cells were seeded on 24-well plates in 0.5 mL of medium per well. Immediately after seeding cells, compounds in appropriate concentrations were added to the cell culture medium.
Following the treatment with the compounds, cells were collected from the plates and suspended in a lysis buffer (2% SDS, 50 mM Tris, pH 8.0, 100 U/ml Pierce Universal Nuclease for Cell Lysis, cOmplete EDTA-free Protease Inhibitor Cocktail) and incubated on ice for 45 min.
The following steps, including sample loading, protein separation, immunoprobing or labelling, washes and detection analysis was performed using Jess from ProteinSimple, an automatic system for analyzing protein levels in cell lysates (12-230 kDa Jess or Wes separation module 8×25 capillaries, protein normalization assay, no. SM-PN01-1). The Protein of Interest was detected using MCL-1 (D35A5) Rabbit monoclonal antibody (Cell Signaling, #5453, LOT: 4). Antibody was diluted in a ratio of 1:100 in Antibody diluent.
[%] of protein reduction is calculated in comparison to the cells treated with DMSO, which stand for 0%.
The results for the 6 h treatment with 100 nM compounds are shown in Table 9, using the following labels: • <20% for 0-19% of MCL-1 protein reduction, • ≥20% for 20-39% of MCL-1 protein reduction, • ≥40% for 40-100% of MCL-1 protein reduction.

Compound | EC50 [1] [nM] | IC50 (MV-4-11 cells) [nM] | AlphaLISA dose response Average pEC50 by molecule [1] | Average pIC50 by molecule MV-4-11 (MV-4-11 cells; 24 hours incubation) | Simple Western, % of protein reduction (MCL-1 protein) [%] | IC50 (DMS 114 cells) [nM] | IC50 (ARH-77 cells) [nM] | Average pIC50 by molecule DMS 114 (DMS 114 cells) | Average pIC50 by molecule ARH-77 (ARH-77 cells; 24 hours incubation)
Cc1nn(C)c(C)c1-c1c(Cl)ccc2c(CCCOc3cccc4cc(F)ccc34)c(C(=O)O)n(CCN3CCN(C(=O)COc4cccc5c4CN(C4CCC(=O)NC4=O)C5=O)CC3)c12 (atropisomer, axis not shown; (Ra)) [Compound 294, (Ra)-6-Chloro-1-(2-(4-(2-((2-(2,6-dioxopiperidin-3-yl)-1-oxoisoindolin-4-yl)oxy)acetyl)piperazin-1-yl)ethyl)-3-(3-((6-fluoronaphthalen-1-yl)oxy)propyl)-7-(1,3,5-trimethyl-1H-pyrazol-4-yl)-1H-indole-2-carboxylic acid] | – | – | >7 | ≥7.5 | – | – | – | ≥6.0 | <5.0
Cc1nn(C)c(C)c1-c1c(F)ccc2c(CCCOc3cccc4ccccc34)c(C(=O)O)n(CCN3CCN(C(=O)COc4cccc5c4C(=O)N(C4CCC(=O)NC4=O)C5=O)CC3)c12 (centres unmarked) [Compound 213, 1-{2-[4-(2-{[2-(2,6-dioxopiperidin-3-yl)-1,3-dioxo-2,3-dihydro-1H-isoindol-4-yl]oxy}acetyl)piperazin-1-yl]ethyl}-6-fluoro-3-[3-(naphthalen-1-yloxy)propyl]-7-(1,3,5-trimethyl-1H-pyrazol-4-yl)-1H-indole-2-carboxylic acid] | < 100 | ≤ 316 | – | – | ≥40 | – | > 10000 | – | –
Cc1nn(C)c(COc2ccc(N3CCN(S(=O)(=O)N(C)C)CC3)cc2)c1-c1cccc2c(CCCOc3cccc4ccccc34)c(C(=O)O)n(CCN3CCN(C(=O)COc4cccc5c4CN(C4CCC(=O)NC4=O)C5=O)CC3)c12 (centres unmarked) [Compound 249, 7-(5-((4-(4-(N,N-dimethylsulfamoyl)piperazin-1-yl)phenoxy)methyl)-1,3-dimethyl-1H-pyrazol-4-yl)-1-(2-(4-(2-((2-(2,6-dioxopiperidin-3-yl)-1-oxoisoindolin-4-yl)oxy)acetyl)piperazin-1-yl)ethyl)-3-(3-(naphthalen-1-yloxy)propyl)-1H-indole-2-carboxylic acid] | < 100 | ≤ 1000 | – | – | ≥20 | – | – | – | –
Cc1nn(C)c(C)c1-c1c(Cl)ccc2c(CCCOc3cccc4cc(F)ccc34)c(C(=O)O)n(CCN3CCN(C(=O)[C@H](C)Oc4cccc5c4C(=O)N([C@H]4CCC(=O)NC4=O)C5=O)CC3)c12 (single isomer, unassigned) [Compound 319] | < 100 | ≤ 31.6 | – | – | – | ≤ 3160 | > 10000 | – | –
Cc1nn(C)c(C)c1-c1c(Cl)ccc2c(CCCOc3cccc4cc(F)ccc34)c(C(=O)O)n(CC[N+]3([O-])CCN(C(=O)COc4cccc5c4CN(C4CCC(=O)NC4=O)C5=O)CC3)c12 (centres unmarked) [Compound 298, 1-(2-(2-Carboxy-6-chloro-3-(3-((6-fluoronaphthalen-1-yl)oxy)propyl)-7-(1,3,5-trimethyl-1H-pyrazol-4-yl)-1H-indol-1-yl)ethyl)-4-(2-((2-(2,6-dioxopiperidin-3-yl)-1-oxoisoindolin-4-yl)oxy)acetyl)piperazine 1-oxide] | < 10 | ≤ 100 | – | – | – | ≤ 1000 | > 10000 | – | –
Cc1ccc2c(CCCOc3cccc4ccccc34)c(C(=O)O)n(CCN3CCN(C(=O)COc4cccc5c4C(=O)N(C4CCC(=O)NC4=O)C5=O)CC3)c2c1-c1c(C)nn(C)c1C (centres unmarked) [Compound 217, 1-(2-(4-(2-((2-(2,6-dioxopiperidin-3-yl)-1,3-dioxoisoindolin-4-yl)oxy)acetyl)piperazin-1-yl)ethyl)-6-methyl-3-(3-(naphthalen-1-yloxy)propyl)-7-(1,3,5-trimethyl-1H-pyrazol-4-yl)-1H-indole-2-carboxylic acid] | < 100 | ≤ 1000 | – | – | ≥40 | – | – | – | –

Second part, led by results:

EC50 [1] [nM] | IC50 (MV-4-11 cells) [nM] | AlphaLISA dose response Average pEC50 by molecule [1] | Average pIC50 by molecule MV-4-11 (MV-4-11 cells; 24 hours incubation) | Simple Western, % of protein reduction (MCL-1 protein) [%] | Compound | IC50 (DMS 114 cells) [nM] | IC50 (ARH-77 cells) [nM] | Average pIC50 by molecule DMS 114 (DMS 114 cells) | Average pIC50 by molecule ARH-77 (ARH-77 cells; 24 hours incubation)
< 100 | ≤ 100 | – | – | – | Cc1nn(C)c(C)c1-c1c(Cl)ccc2c(CCCOc3cccc4cc(F)ccc34)c(C(=O)O)n(CCN3CCN(C(=O)Cn4c(C)nc5c(C(=O)NC6CCC(=O)NC6=O)cc(F)cc54)CC3)c12 (centres unmarked) [Compound 278, 6-Chloro-1-{2-[4-(2-{4-[(2,6-dioxopiperidin-3-yl)carbamoyl]-6-fluoro-2-methyl-1H-1,3-benzodiazol-1-yl}acetyl)piperazin-1-yl]ethyl}-3-{3-[(6-fluoronaphthalen-1-yl)oxy]propyl}-7-(1,3,5-trimethyl-1H-pyrazol-4-yl)-1H-indole-2-carboxylic acid] | ≤ 3160 | > 10000 | – | –
< 100 | ≤ 100 | – | – | – | Cc1nn(C)c(C)c1-c1c(Cl)ccc2c(CCCOc3cccc4cc(F)ccc34)c(C(=O)O)n(CCN3CCN(C(=O)Cn4c(C)nc5c(C(=O)NC6CCC(=O)NC6=O)cc(N)cc54)CC3)c12 (centres unmarked) [Compound 275, 1-{2-[4-(2-{6-Amino-4-[(2,6-dioxopiperidin-3-yl)carbamoyl]-2-methyl-1H-1,3-benzodiazol-1-yl}acetyl)piperazin-1-yl]ethyl}-6-chloro-3-{3-[(6-fluoronaphthalen-1-yl)oxy]propyl}-7-(1,3,5-trimethyl-1H-pyrazol-4-yl)-1H-indole-2-carboxylic acid] | ≤ 3160 | > 10000 | – | –
< 100 | ≤ 31.6 | – | – | – | Cc1nn(C)c(C)c1-c1c(Cl)ccc2c(CCCOc3cccc4cc(F)ccc34)c(C(=O)O)n(CCN3CCN(C(=O)COc4c(F)ccc5c4CN(C4CCC(=O)NC4=O)C5=O)CC3)c12 (centres unmarked) [Compound 342, 6-Chloro-1-(2-(4-(2-((2-(2,6-dioxopiperidin-3-yl)-5-fluoro-1-oxoisoindolin-4-yl)oxy)acetyl)piperazin-1-yl)ethyl)-3-(3-((6-fluoronaphthalen-1-yl)oxy)propyl)-7-(1,3,5-trimethyl-1H-pyrazol-4-yl)-1H-indole-2-carboxylic acid] | ≤ 1000 | > 10000 | – | –
< 100 | ≤ 100 | – | – | – | COc1cc(C(=O)NC2CCC(=O)NC2=O)c2nc(C)n(CC(=O)N3CCN(CCn4c(C(=O)O)c(CCCOc5cccc6cc(F)ccc56)c5ccc(Cl)c(-c6c(C)nn(C)c6C)c54)CC3)c2c1 (centres unmarked) [Compound 277, 6-Chloro-1-{2-[4-(2-{4-[(2,6-dioxopiperidin-3-yl)carbamoyl]-6-methoxy-2-methyl-1H-1,3-benzodiazol-1-yl}acetyl)piperazin-1-yl]ethyl}-3-{3-[(6-fluoronaphthalen-1-yl)oxy]propyl}-7-(1,3,5-trimethyl-1H-pyrazol-4-yl)-1H-indole-2-carboxylic acid] | ≤ 3160 | > 10000 | – | –
